Experimental data reported in US20220387472A1, “COMPOSITIONS AND METHODS FOR TREATING CANCER” (AIM ImmunoTech Inc., priority 2020, published 2022).
“And” between values parts separate entries of the source, which are not always exact repeats. Equal values may be shown once. Read-outs that look alike come from different tables or passages of the source.

Experiments:
[1] = system: Pancreatic Adenocarcinoma; conditions: cited from earlier work
[2] = parameters: species or system Humans; conditions: human, in vivo, 6 mg/kg
Experimental: (§1) Ampligen® has undergone extensive preclinical safety testing including 18 animal (mice, rat, rabbit, dog, and monkey) toxicity studies; 6 animal (rat and rabbit) reproductive studies, and 2 animal (rat, monkey) PK/PD studies. The MTD for humans and NHPs is >10 mg/kg and >36 mg/kg, respectively.

[3] = cynomolgus monkey, in vivo, 6 mg/kg
Experimental: as §1

[4] = Maximum tolerated dose (MTD) in humans; type: in vivo
Experimental: as §1

[5] = Maximum tolerated dose (MTD) in NHP; type: in vivo; conditions: NHP (Cynomolgus monkey)
Experimental: as §1

[6] = system: metastatic or locally advanced pancreatic carcinoma; assay: Survival of pancreatic cancer patients given […] following FOLFIRINOX vs matched historical control group; type: in vivo, human; conditions: n = 27 per group, from start of FOLFIRINOX, control: FOLFIRINOX only (historical); for Median Overall Survival: AMPLIGEN i.v. 200 mg twice weekly for 2 weeks, then 400 mg twice weekly, 18 weeks total, following FOLFIRINOX
Experimental: In this case, the tdsRNA used is rintatolimod ([…]®) which is a form of tdsRNA. Included in the study were adults with metastatic or locally advanced pancreatic carcinoma following FOLFIRINOX treatment. The tdsRNA treatment was rintatolimod ([…]®) administered i.v. 200 mg twice weekly for 2 weeks, then 400 mg twice weekly for a total treatment duration of 18 weeks.
The experiment compared survival in the experimental […]® cohort (n=27) compared to a historical control group (n=27) matched for age, gender, disease stage and number of cycles of FOLFIRINOX.
To be selected for the study, the patient should be over 18 years in age and diagnosed with locally advanced pancreatic cancer (LAPC) or metastasized pancreatic cancer. These LACP patients were not candidates for surgical resection. The patient should have completed the standard of care (e.g., A FOLFIRINOX regimen) and the patient should have no progressive disease (as detected by computed tomography (CT) 6 weeks after treatment). Patients with second malignancy (simultaneous), on immunosuppressive medication, or having liver-renal insufficiency were excluded.
Survival analysis was performed as follows. A group of 136 patients was assembled from a retrospective database, including all patients who received FOLFIRINOX between 2012-2018. Variables that were matched include age (+ or −10 years); gender; disease stage (locally advanced pancreatic cancer (LAPC), metastasized, metastasized after resection); and the number of FOLFIRINOX cycles to obtain a historical control group that was well-matched to the experimental group. The outcomes were determined from the start of FOLFIRINOX, and the overall survival and progression-free survival were calculated.

[7] = Clinical safety and tolerability of tdsRNA (rintatolimod); type: in vivo, human; conditions: for Tolerability: twice weekly infusions
From the text: tdsRNA (e.g., Rintatolimod) has undergone extensive clinical and preclinical testing. […] Favorable safety profiles have been seen for intraperitoneal, intravenous, and intranasal routes of administration of tdsRNA.
Our analysis and previous studies have shown that […]® has a very good safety profile. […]® lacks the potent toxicities seen with most chemotherapeutic agents. See, e.g., […]®'s safety profile in other parts of this disclosure. […] Thus, we believe the ideal use of […]® would be to continue therapy beyond 18 weeks until time of tumor progression. We believe this approach could add an additional 4 to 6 months or more to the overall survival (OS) benefit.

[8] = clinical trials enrolling over 1,200 patients, over 100,000 doses

Nc1ccn([C@@H]2O[C@H](CO)[C@@H](O)C2(F)F)c(=O)n1 [gemcitabine]
OS Months ([1]; First-Line Therapy, median overall survival): 6.7 Months and 6.0 Months and 6.8 Months

O=C(c1cc(Cc2n[nH]c(=O)c3ccccc23)ccc1F)N1CCN(C(=O)C2CC2)CC1 [Lynparza]
OS Over Control ([1]; Second-Line Therapy, median OS over the control arm): 3.6 months

rIn.r(C12U)n
Half-Life [2]: 36.5 min | Half-Life [3]: 22.9 min | MTD ([4]; based on 1200 mg BIW (cancer)): 17 mg/kg | MTD ([4]; based on randomized, well-controlled 24 week study in HIV disease): > 10 mg/kg | MTD ([5]; based on 4 weeks): 100 mg/kg | MTD ([5]; based on 24 weeks): > 36 mg/kg | Median Progression-free Survival ([6]; AMPLIGEN following FOLFIRINOX): 12.0 months | Median Overall Survival [6]: 19.0 months and 19 months | Median Overall Survival ([6]; listed as Ampligen): 19 months | Drug-related deaths [7, 8]: no drug-related deaths | Tolerability [7, 8]: generally well-tolerated | Tolerability ([7]; clinical trials enrolling over 1,200 patients, over 100,000 doses, listed as Ampligen): generally well-tolerated | Tolerability ([7]; clinical trials enrolling over 1,200 patients, over 100,000 doses, listed as Rintatolimod): well-tolerated | Cumulative toxicities ([7]; human, in vivo): no evidence of any cumulative toxicities | Serious adverse events compared to placebo ([7]; two placebo-controlled, randomized studies): no increase in serious adverse events compared to placebo
